The values that follow come from patent US20260174875A1 (Novo Nordisk A/S, priority 2023, published 2026).

Series [1] deals with T1, human GIP receptor (hGIPR) (Homo sapiens, UniProt P48546).
T1 construct: expressed in transfected cells
T1 sequence (P48546 22-466): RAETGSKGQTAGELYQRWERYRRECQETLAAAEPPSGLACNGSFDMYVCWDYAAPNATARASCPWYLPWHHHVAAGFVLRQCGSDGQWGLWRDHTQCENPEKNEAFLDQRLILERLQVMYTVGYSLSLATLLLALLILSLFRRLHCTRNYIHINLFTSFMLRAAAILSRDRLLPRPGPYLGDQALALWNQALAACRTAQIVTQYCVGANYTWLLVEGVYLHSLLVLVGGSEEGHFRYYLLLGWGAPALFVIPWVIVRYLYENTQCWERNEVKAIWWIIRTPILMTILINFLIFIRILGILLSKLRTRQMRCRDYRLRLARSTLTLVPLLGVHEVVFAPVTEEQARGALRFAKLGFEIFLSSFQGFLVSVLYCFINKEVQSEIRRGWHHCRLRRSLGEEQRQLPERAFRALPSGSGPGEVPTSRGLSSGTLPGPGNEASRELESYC
Put plainly: GIP receptor assay, method B (CRE-luciferase reporter, BHK cells, 384-well). The format is cell-based. (In a reporter assay the amount or activity of a reporter protein is the signal.)
Protocol: To assess how the activation of the receptors is potentially influenced by the presence of human serum albumin (HSA), the in vitro assays were performed in the absence of HSA and presence of 1% (w/v) HSA.
Activation of the human GIP receptor leads to increased intra-cellular concentrations of cyclic AMP (cAMP) and the consequent transcription activation from promoters containing multiple copies of the cAMP response element (CRE). It is thus possible to measure GIP receptor activity using a CRE-luciferase reporter gene introduced into Baby Hamster Kidney (BHK) cells co-expressing the human GIP receptor.
Cells at about 80-90% confluency were washed once with PBS (Gibco 14190-094) and detached from the cell flasks with Versene (Gibco, 15040-066). After centrifugation, the cells were counted, resuspended and diluted to approximately 1.5-3.0×10^6 (1.5E+6 to 3.0E+6) cells/mL in Recovery Cell Culture Freezing Medium (Gibco, 12648-010) and stored at −180° C. in suitable aliquots until use.
The assay buffer consisted of DMEM without phenol red (Gibco, 11880-028) supplemented with 1× GlutaMAX (Gibco, 35050-038), 10 mM HEPES (Gibco, 15630-056), 1% (w/v) ovalbumin (Sigma, A5503) and 0.1% (v/v) Pluronic F-68 (Gibco, 24040-032) either with HSA or without HSA (Sigma, A9511).
Serial dilutions were transferred to a 384-well assay plate (PerkinElmer/Revvity, 6007688) and mixed with an equal volume (10 μL) of assay buffer without or with 3% HSA (Sigma, A-9511). Frozen stocks of hGIPR BHK Cre-Luc cells were thawed in a 37° C. water bath, washed once in PBS (Gibco 14190-094), diluted to 1.5×10^5 (1.5E+5) cells/mL in assay buffer (without HSA) and added (10 μL) to each well of the 384-well assay plate. After a short centrifugation, the assay plates were incubated for 3 hours at 37° C. in 5% CO2 and let to equilibrated at room temperature for 10 minutes before the addition of 30 μL steadylite Plus™ (PerkinElmer/Revvity, 6066759) per well. Plates were sealed and incubated at room temperature with gentle shaking for 30 minutes while protected from light. Luminescence was detected on a luminescence plate reader e.g. a Synergy 2 (BioTek).

Series [2] has as its target T2, human GLP-1 receptor (hGLP-1R) (Homo sapiens, UniProt P43220).
T2 construct: expressed in transfected cells
Put plainly: GLP-1 receptor assay, method B (CRE-luciferase reporter, BHK cells, 384-well). Type of series: cell-based.

Series [3] has as its target T3, human amylin receptor (hAMYR3) (Homo sapiens, UniProt O60896+P30988).
T3 construct: host or cells: BHK cells (Hollex-1 line expressing hCTR(a) and CRE-Luc), further transfected with human RAMP3
Put plainly: Amylin receptor assay, method B (CRE-luciferase reporter, BHK cells). The format is cell-based. The essentials: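 BHK cells with CRE-luciferase, co-expressing hAMYR3 and transfected with human RAMP3, seeded overnight, then exposed 3 h at 37 °C to compound. Buffer: phenol red-free DMEM, 10 mM HEPES, 1% ovalbumin, with 0% or 1% (w/v) HSA. Luminescence read after 30 min with steadylite Plus.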

In series [4] the test system is Male Sprague Dawley (SD) rats. Put plainly: Efficacy testing on appetite: acute food intake in ad libitum fed normal weight rats. The format is in vivo, rat. The following applies: single dose 10 nmol/kg. An excerpt:
Male Sprague Dawley (SD) rats from Taconic, Denmark were used for the acute food intake experiments, wherein the principles of laboratory animal care were followed.
The rats arrived at least 10-14 days before the start of the experiment to allow acclimatization to experimental settings. During this period, the animals were handled (fixation by restrain in neck skin) at least 2 times. Immediately upon arrival, rats were changed to a reversed light cycle (dark from 11 am-11 pm) and were transferred to an automated food intake measuring system (HM2 system, MBRose; Faaborg, Denmark). […] To enable recording of individual food intake, rats were ID chipped. Three rats were housed in each cage. During the acclimatization period, in which the rats get used to the new light cycle and diet (LF 10% (D12450B), from Research Diets Inc.), the animals had free access to food and water. Since rats are normally active and consume most of their daily calories during the dark period, rats were dosed in the morning right before lights were turned off. Such a set-up results in the lowest data variation and highest test sensitivity. […] In each cage there were animals from three different treatment groups (to eliminate potential cage effects (e.g. cage malfunction) on primary readout: food intake). The rats were dosed once subcutaneously (s.c.) with the peptide of interest according to body weight (10 or 30 nmol/kg) in vehicle (0.5 ml/kg) using a NovoPen® (Novo Nordisk, Bagsvæed, Denmark).
The compounds of the invention were formulated (20 or 60 nmol/ml) in the following vehicle: 8 mM phosphate; 250 mM glycerol; 0.007% polysorbate 20, pH 7.4.
After dosing, the rats were returned to their home cages, where they continued to have ad libitum access to chow and water. The food consumption was recorded individually and continuously by the HM2 system from 0-72 h after test compound administration. Data obtained by the HM-2 system were stored in a HMBase SQL database (Firebird® relational database management system) and were processed by HM2Lab software (MBRose; Faaborg, Denmark) installed in an embedded computer. The feeding system is a highly sensitive system with a load resolution of 0.001 g.

A short description of series [5]: Chemical stability assessment in formulation (UPLC-UV-MS purity loss at 37° C.). Type of series: physicochemical. The following applies: 8 mM phosphate buffer pH 7.4, 1 mg/mL, 2 weeks. The method, boiled down:
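Peptides at target 1 mg/mL in 8 mM phosphate buffer, pH adjusted to 7.4, incubated in capped vials at 37° C. and sampled over 2 weeks, frozen until analysis. Purity followed by UPLC-UV-MS with a 0.1% formic acid water/acetonitrile gradient.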

Where [6] appears, read: hGIPR Potency, 1% HSA, EC50, methods B, in the presence of 1% HSA.
The mark [7] stands for this setting: method B, absence of HSA, read-out: hGIPR Potency, no HSA, EC50.
Setting [8] is: hGLP-1R Potency, 1% HSA, EC50, methods B, in the presence of 1% HSA.
[9] abbreviates: method B, absence of HSA, read-out: hGLP-1R Potency, no HSA, EC50.
[10] abbreviates: hAMYR3 Potency, 1% HSA, EC50, methods B, in the presence of 1% HSA.
The mark [11] stands for this setting: method B, absence of HSA, read-out: hAMYR3 Potency, no HSA, EC50.

Where two headings read alike, the source gives them in different places.

T2 sequence (P43220 24-463): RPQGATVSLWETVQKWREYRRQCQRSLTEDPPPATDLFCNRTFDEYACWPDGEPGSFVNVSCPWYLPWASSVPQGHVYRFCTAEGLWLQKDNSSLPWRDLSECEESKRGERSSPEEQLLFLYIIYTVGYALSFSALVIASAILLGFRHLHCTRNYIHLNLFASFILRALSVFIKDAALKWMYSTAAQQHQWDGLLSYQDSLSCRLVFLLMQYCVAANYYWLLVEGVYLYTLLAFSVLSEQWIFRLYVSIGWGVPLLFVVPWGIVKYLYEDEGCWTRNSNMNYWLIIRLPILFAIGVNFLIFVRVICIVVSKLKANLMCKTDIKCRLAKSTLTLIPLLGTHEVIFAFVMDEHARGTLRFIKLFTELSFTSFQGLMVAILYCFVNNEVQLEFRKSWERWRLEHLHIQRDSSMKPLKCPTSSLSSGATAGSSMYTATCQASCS
T3 sequence (P30988 25-474): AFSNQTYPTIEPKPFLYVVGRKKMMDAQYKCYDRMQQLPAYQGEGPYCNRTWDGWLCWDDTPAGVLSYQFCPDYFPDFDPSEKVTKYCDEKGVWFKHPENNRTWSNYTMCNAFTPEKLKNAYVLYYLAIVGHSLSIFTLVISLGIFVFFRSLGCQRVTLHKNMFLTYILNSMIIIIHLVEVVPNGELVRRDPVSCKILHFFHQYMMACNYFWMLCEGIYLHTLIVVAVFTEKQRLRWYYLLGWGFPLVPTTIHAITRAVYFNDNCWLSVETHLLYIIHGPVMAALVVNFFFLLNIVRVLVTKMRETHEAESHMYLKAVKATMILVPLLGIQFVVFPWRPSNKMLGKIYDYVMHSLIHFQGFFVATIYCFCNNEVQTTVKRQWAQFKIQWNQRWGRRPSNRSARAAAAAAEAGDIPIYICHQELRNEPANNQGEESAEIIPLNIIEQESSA
T3 sequence (O60896 24-148): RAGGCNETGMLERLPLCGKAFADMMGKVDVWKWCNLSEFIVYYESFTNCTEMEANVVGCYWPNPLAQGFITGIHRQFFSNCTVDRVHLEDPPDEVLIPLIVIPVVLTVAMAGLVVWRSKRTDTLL

For the compound `CC[C@H](C)[C@H](NC(=O)[C@H](CCC(=O)O)NC(=O)[C@H](CCC(=O)O)NC(=O)[C@H](CC(C)C)NC(=O)[C@H](CC(C)C)NC(=O)[C@@H](NC(=O)[C@H](CO)NC(=O)[C@H](Cc1ccc(O)cc1)NC(=O)[C@H](CC(=O)O)NC(=O)[C@H](CO)NC(=O)[C@@H](NC(=O)[C@H](Cc1ccccc1)NC(=O)[C@@H](NC(=O)CNC(=O)[C@H](CCC(=O)O)NC(=O)C(C)(C)NC(=O)[C@@H](N)Cc1ccc(O)cc1)[C@@H](C)O)[C@@H](C)O)[C@@H](C)CC)C(=O)N[C@@H](C)C(=O)N[C@@H](C)C(=O)N[C@@H](CCCNC(=N)N)C(=O)N[C@@H](CCC(=O)O)C(=O)N[C@@H](Cc1ccccc1)C(=O)N[C@H](C(=O)N[C@@H](CCC(=O)O)C(=O)N[C@@H](Cc1c[nH]c2ccccc12)C(=O)N[C@@H](CC(C)C)C(=O)N[C@@H](CC(C)C)C(=O)N[C@@H](C)C(=O)NCC(=O)NCC(=O)N1CCC[C@H]1C(=O)N[C@@H](CO)C(=O)N[C@@H](CO)C(=O)NCC(=O)N[C@@H](C)C(=O)NCC(=O)N[C@@H](C)C(=O)N[C@@H](CO)C(=O)N[C@@H](CCC(=O)O)C(=O)N[C@@H](CC(C)C)C(=O)N[C@@H](CO)C(=O)N[C@H](C(=O)N[C@@H](C)C(=O)N[C@@H](CCC(N)=O)C(=O)N[C@H](C(=O)N[C@@H](CCC(N)=O)C(=O)N[C@@H](CCCNC(=N)N)C(=O)N[C@@H](CC(C)C)C(=O)N[C@@H](CO)C(=O)N[C@@H](C)C(=O)N[C@@H](CCC(=O)O)C(=O)N[C@@H](CC(C)C)C(=O)N[C@@H](Cc1c[nH]cn1)C(=O)N[C@@H](CCCCNC(=O)COCCOCCNC(=O)COCCOCCNC(=O)CC[C@H](NC(=O)CCCCCCCCCCCCCCCCCCC(=O)O)C(=O)O)C(=O)N[C@@H](CC(C)C)C(=O)N[C@@H](C)C(=O)N[C@H](C(=O)N[C@@H](CC(C)C)C(=O)N1CCC[C@H]1C(=O)N[C@@H](CCCNC(=N)N)C(=O)N[C@H](C(=O)N[C@@H](CCC(=O)O)C(=O)N[C@H](C(=O)NCC(=O)N[C@@H](CO)C(=O)NCC(=O)N[C@@H](CO)C(=O)N1CCC[C@H]1C(N)=O)[C@@H](C)O)[C@@H](C)O)[C@@H](C)O)[C@@H](C)O)[C@@H](C)O)[C@@H](C)CC` [Compound 176], the EC50 in series [1] (setting [6]) amounted to 0.0238 nM; in series [1] (setting [7]), 0.00366 nM; in series [2] (setting [8]), 0.178 nM; in series [2] (setting [9]) it was 0.0299 nM; in series [3] (setting [10]), 0.798 nM; in series [3] (setting [11]), 0.0112 nM. For the same compound, the “Food intake (relative to vehicle) Day 1” value in series [4] (day 1 [0-24 hours]) is −12%. In addition, in series [4] (day 2 [24-48 hours]), the “Food intake (relative to vehicle) Day 2” value was 2%. In addition, in series [4] (day 3 [48-72 hours]), the “Food intake (relative to vehicle) Day 3” value is given as 7%.

For the compound `CC[C@H](C)[C@H](NC(=O)[C@H](CCC(=O)O)NC(=O)[C@H](CCC(=O)O)NC(=O)[C@H](CC(C)C)NC(=O)[C@H](CC(C)C)NC(=O)[C@@H](NC(=O)[C@H](CO)NC(=O)[C@H](Cc1ccc(O)cc1)NC(=O)[C@H](CC(=O)O)NC(=O)[C@H](CO)NC(=O)[C@@H](NC(=O)[C@H](Cc1ccccc1)NC(=O)[C@@H](NC(=O)CNC(=O)[C@H](CCC(=O)O)NC(=O)C(C)(C)NC(=O)[C@@H](N)Cc1ccc(O)cc1)[C@@H](C)O)[C@@H](C)O)[C@@H](C)CC)C(=O)N[C@@H](C)C(=O)N[C@@H](C)C(=O)N[C@@H](CCCNC(=N)N)C(=O)N[C@@H](CCC(=O)O)C(=O)N[C@@H](Cc1ccccc1)C(=O)N[C@H](C(=O)N[C@@H](CCC(=O)O)C(=O)N[C@@H](Cc1c[nH]c2ccccc12)C(=O)N[C@@H](CC(C)C)C(=O)N[C@@H](CC(C)C)C(=O)N[C@@H](C)C(=O)NCC(=O)NCC(=O)N1CCC[C@H]1C(=O)N[C@@H](CO)C(=O)N[C@@H](CO)C(=O)N[C@@H](CCC(=O)O)C(=O)N[C@@H](C)C(=O)NCC(=O)N[C@@H](CCC(N)=O)C(=O)N[C@@H](C)C(=O)N1CCC[C@H]1C(=O)NCC(=O)N[C@@H](CCC(N)=O)C(=O)N[C@@H](C)C(=O)N1CCC[C@H]1C(=O)NCC(=O)N[C@@H](C)C(=O)N[C@@H](CO)C(=O)N[C@@H](Cc1c[nH]cn1)C(=O)N[C@@H](CC(C)C)C(=O)N[C@@H](CO)C(=O)N[C@H](C(=O)N[C@@H](C)C(=O)N[C@@H](CCC(N)=O)C(=O)N[C@H](C(=O)N[C@@H](CCC(N)=O)C(=O)N[C@@H](CCCNC(=N)N)C(=O)N[C@@H](CC(C)C)C(=O)N[C@@H](CO)C(=O)N[C@@H](C)C(=O)N[C@@H](CCC(=O)O)C(=O)N[C@@H](CC(C)C)C(=O)N[C@@H](Cc1c[nH]cn1)C(=O)N[C@@H](CCCCNC(=O)COCCOCCNC(=O)COCCOCCNC(=O)CC[C@H](NC(=O)CCCCCCCCCCCCCCCCCCC(=O)O)C(=O)O)C(=O)N[C@@H](CC(C)C)C(=O)N[C@@H](C)C(=O)N[C@H](C(=O)N[C@@H](CCC(=O)O)C(=O)N1CCC[C@H]1C(=O)N[C@@H](CCCNC(=N)N)C(=O)N[C@H](C(=O)N[C@@H](CCC(=O)O)C(=O)N[C@H](C(=O)NCC(=O)N[C@@H](CO)C(=O)NCC(=O)N[C@@H](CO)C(=O)N1CCC[C@H]1C(N)=O)[C@@H](C)O)[C@@H](C)O)[C@@H](C)O)[C@@H](C)O)[C@@H](C)O)[C@@H](C)CC` [Compound 165], the EC50 in series [1] (setting [6]) came out at 0.00764 nM; in series [1] (setting [7]) it was 0.00239 nM; in series [2] (setting [8]), 0.0888 nM; in series [2] (setting [9]), 0.0251 nM; in series [3] (setting [10]), 0.537 nM; in series [3] (setting [11]), 0.0094 nM. The “Purity loss per week at 37° C.” value in series [5] is recorded as 1.0%.

Usually EC50 stands for the concentration at which the effect is half-maximal.
